According to US20160120889A1, “LIFESPAN EXTENDING AGENT” (priority 2011, published 2016):

How the values were obtained:
[1] = test system: wild-type N2 strain of the nematode Caenorhabditis elegans; assay: Nematode survival rate and average lifespan, wild-type N2; format: in vivo
Method: The wild-type N2 strain of the nematode Caenorhabditis elegans was used.
(§1) Complete S liquid medium (Sulston, J. E. and Brenner, S. (1974) Genetics 77, 95-104) was used for the culturing of the nematode. D-psicose or D-allose was added to the medium in 0.25% (14 mM) and 0.5% (28 mM). The Escherichia coli (E. coli) OP50 strain was added in 30 mg (wet weight/mL) to feed the worms. To exclude the effects of the germ cells on lifespan, the cell division inhibitor 2′-deoxy-5-fluorouridine (40 μM) was added.
(§2) Young worms, 4 days of age, were used for the measurements of survival rate and average lifespan. The prepared liquid medium was dispensed onto ten plastic petri dishes having a diameter of 3.5 cm (2 mL each). Ten nematodes were transferred to each petri dish (a total of 100 individuals), and cultured at 20° C. The samples were inoculated into a new medium every day until day 3, and every 2 to 3 days thereafter. Observations were made at the time of the inoculation, and the number of survived individuals was recorded.
(§3) The wild-type N2 strain of the nematode Caenorhabditis elegans was cultured, and lifespan was measured in the same manner as in Example 1, except that the D-psicose was used in 0.5% (w/v). […] The average lifespan with 0.5% D-psicose was 27 days, longer than the 23-day lifespan of the D-psicose-free control.

[2] = test system: SOD activity in mev-1; assay: SOD activity in lysate of mev-1; format: in vivo, Caenorhabditis elegans; settings: mev-1, 0.5% (w/v)
Method: (§4) The wild-type N2 and the oxygen sensitive mutant mev-1 of the nematode Caenorhabditis elegans were cultured in liquid medium (10 mL) containing 0.5% (w/v) D-psicose. The medium was dispensed onto plastic petri dishes having a diameter of 10 cm, and approximately 1,000 nematodes were placed in each petri dish. The nematodes were cultured in the same manner as in Example 1 except for these differences, and the samples were collected on day 6 from the start of the culturing. FIG. 5 represents the results of the comparison of SOD mRNA gene expression levels. For comparison, the RNA gene levels of mitochondria Mn-SOD and cytosol Cu/Zn-SOD were measured.
(§5) The wild-type N2 and the oxygen sensitive mutant mev-1 of the nematode Caenorhabditis elegans were grown in the same manner as in Example 4. The samples were collected on day 7 from the start of the culturing, and the SOD activity in the lysate was measured.

[3] = test system: SOD gene (Mn-SOD sod-3, Cu/Zn-SOD) in mev-1; assay: SOD mRNA gene expression in mev-1 (real time quantitative RT-PCR); format: in vivo, Caenorhabditis elegans
Method: as §4

[4] = test system: catalase activity in N2; assay: Catalase activity in lysate of N2; format: in vivo, Caenorhabditis elegans; settings: N2, 0.5% (w/v), day 7, FIG. 8
Method: as §4
The wild-type N2 of the nematode Caenorhabditis elegans was grown in the same manner as in Example 4. The samples were collected on day 7 from the start of the culturing, and the catalase activity in the lysate was measured.

[5] = test system: SOD gene (mitochondria Mn-SOD, cytosol Cu/Zn-SOD) in N2; assay: SOD mRNA gene expression in N2 (real time quantitative RT-PCR); format: in vivo, Caenorhabditis elegans; settings: N2, 0.5% (w/v), day 6, FIG. 5
Method: as §4

[6] = test system: SOD activity in N2; assay: SOD activity in lysate of N2; format: in vivo, Caenorhabditis elegans; settings: N2, 0.5% (w/v)
Method: as §4, §5

[7] = test system: catalase genes ctl-1, ctl-2 in N2; assay: Catalase mRNA gene expression in N2; format: in vivo, Caenorhabditis elegans; settings: N2, 0.5% (w/v), day 6
Method: as §4
The wild-type N2 and the oxygen sensitive mutant mev-1 of the nematode Caenorhabditis elegans were cultured in the same manner as in Example 4. The samples were collected on day 6 from the start of the culturing, and the catalase mRNA gene expression levels were compared. For comparison, the RNA gene levels of cytosol ctl-1 and peroxisome CTL-2 were measured.

[8] = test system: oxygen sensitive mutant mev-1 of the nematode Caenorhabditis elegans; assay: Nematode average lifespan, oxygen sensitive mutant mev-1; format: in vivo; settings: mev-1, 0.25%, Example 3; control 12 days
Method: as §1, §2
as §3, with “oxygen sensitive mutant mev-1” for “wild-type N2 strain”, “0.25%.” for “0.5% (w/v).”, “0.25%” for “0.5%”, “16” for “27”, “12-day” for “23-day”

Compound | average lifespan ([1]; N2, 0.5% (28 mM) in medium, 20° C., Example 1, control 12.5 days) | increase in average lifespan vs control ([1]; N2, 0.5% in medium, Example 1) | increase in SOD enzyme activity ([2]; day 7) | SOD activity in the lysate ([2]; day 7, FIG. 6) | SOD mRNA gene expression level ([3]; mev-1, 0.5% (w/v), day 6, FIG. 5) | increase in expression level of Mn-SOD (sod-3) gene ([3]; mev-1, real time quantitative RT-PCR, 0.5% (w/v), day 6) | catalase activity in the lysate [4] | average lifespan ([1]; N2, 0.25% (14 mM) in medium, 20° C., Example 1, control 15.8 days) | increase in average lifespan vs control ([1]; N2, 0.25% in medium, Example 1) | lifespan extension ([1]; N2, 0.5% (w/v)) | average lifespan ([1]; N2, 0.5% (w/v), Example 2, control 23 days) | SOD mRNA gene expression level [5] | increase in SOD enzyme activity ([6]; day 7) | SOD activity in the lysate ([6]; day 7, FIG. 6) | increase in gene expression levels of cytoplasm-localized catalase and peroxisome catalases (ctl-1, ctl-2) [7] | average lifespan [8]
O=C[C@H](O)[C@H](O)[C@H](O)[C@H](O)CO [D-allose] | 15.8 days | 26% | – | – | – | – | – | – | – | – | – | – | – | – | – | –
O=C(CO)[C@H](O)[C@H](O)[C@H](O)CO [D-psicose] | – | – | 1.3 fold | increased SOD activity | increased expression | 1.7 fold | increased catalase activity | 18.9 days | 20% | 17% | 27 days | increased expression | 1.5 fold | increased SOD activity | 1.5 fold | 16 days
